Where two headings read alike, the source gives them in different places.

The nature of the data set: Interpatient oral bioavailability in patients (oral vs intravenous AUC, matched). The data set is classed as in vivo. Particulars: human, plasma. The method, then: The term “interpatient oral bioavailability” as used herein refers to the mean oral bioavailability in a population of at least two patients, wherein the oral bioavailability is determined at least once for each patient in the population. The interpatient oral bioavailability may be calculated by dividing the mean population AUC after oral dosing by the mean population AUC after intravenous dosing, wherein the oral and intravenous doses are identical, and expressing the ratio as a percent. In a preferred method, the interpatient oral bioavailability is calculated using matched samples by averaging the oral bioavailabilities obtained for each patient. More specifically, the oral bioavailability is obtained for each patient by dividing the AUC after oral dosing the patient by the AUC after intravenous dosing the same patient with the same dose of antifolate (i.e. the oral and intravenous AUC in each patient are matched and the patients are said to be matched). The interpatient oral bioavailability based on these matched patients is then simply the mean population oral bioavailability expressed as a percent. […] It is sufficient to use a representative number of patients from a particular patient population to establish an interpatient oral bioavailability for that population, where at least 5 patients will be required in order to establish an interpatient oral bioavailability of a population.
The term “oral bioavailability” as used herein refers to the fraction of an antifolate dose given orally that is absorbed into the plasma after a single administration to a patient. A preferred method for determining the oral bioavailability is by dividing the AUC of an antifolate dose given orally by the AUC of the same antifolate dose given intravenously to the same patient, and expressing the ratio as a percent. […]

For the compound `Nc1nc(N)c2nc(CNc3ccc(C(=O)N[C@@H](CCC(=O)O)C(=O)O)cc3)cnc2n1` [AMT], the bioavailability turned out to be 94% (2 mg/m2, AMT 2 mg/m^2, pediatric patients (age 0-21), 15 matched patients, read-out: Interpatient oral bioavailability (%)); 165% (2 mg/m2, AMT 2 mg/m^2, pediatric patients, n=15, read-out: Maximum (%) oral bioavailability); 45% (2 mg/m2, AMT 2 mg/m^2, pediatric patients, n=15, read-out: Minimum (%) oral bioavailability).
